Reference: the METLIN SMRT retention time set (Domingo-Almenara et al. 2019)

Assay: gradient 5% acetonitrile 3 min, to 50% in 2 min, to 85% in 15 min, held 3 min, 100 µL/min
Conditions: column: Zorbax Extend-C18 2.1 x 50 mm; eluents: water / acetonitrile, 0.1% formic acid
How it was run: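 The mobile phases were water and acetonitrile, each with 0.1% formic acid, pumped at 100 μL/min through a Zorbax Extend-C18 column (2.1 × 50 mm, 1.8 μm). Pure standards were injected as mixtures of ~100 molecules and detected by a quadrupole time-of-flight mass spectrometer in positive and negative ionization mode. Retention time came from computationally picked adduct peaks, each inspected by hand.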

| Compound | RP-LC retention time |
| --- | --- |
| CCOC(=O)c1ccc(NC2=NS(=O)(=O)C(c3ccc(F)cc3)=C2C)cc1 | 948 s |
| CCn1cc(C2=CCN(S(=O)(=O)c3cccc(Cl)c3)CC2)c2cccnc21 | 1070 s |
| COC(=O)CNC(=O)NC(C)C(=O)N1CCc2ccccc21 (stereo not drawn) | 662 s |
| CCNC(=O)c1n[nH]c2c1CN(Cc1sccc1C)CC2 | 572 s |
| O=C(c1cccc2[nH]cc(CN3CCCC3)c12)N1CCN(c2ccccc2)CC1 | 706 s |
| CC(C)CC(C(=O)N1CCOCC1)N1CC2=C(C1=O)C(c1ccccc1Cl)NC(=O)N2C (stereo not drawn) | 894 s |
| CN1C(=O)CSc2cnn(CC(=O)NC3CCCC3)c(=O)c21 | 637 s |
| CCN1CCCn2cc(S(=O)(=O)Nc3cc(Cl)ccc3OC)cc2C1=O | 794 s |
| Cc1ccc(CNC(=O)CN2C(=O)CCc3cc(S(=O)(=O)N4CCCCC4C)ccc32)cc1 (stereo not drawn) | 916 s |
| CSc1cccc(NC(=O)N2CCCC(C)(C(=O)NCc3ccc(C)cc3)C2)c1 (stereo not drawn) | 989 s |
| Cc1cccc(NC(=O)N2CCc3nc[nH]c3C2)c1C | 565 s |
| COc1ccc(NC(=O)Cn2cccc(-c3nc(-c4ccc(OC)c(OC)c4)no3)c2=O)cc1Cl | 814 s |
| O=C(Nc1nc2c(Cl)cccc2s1)C1COc2ccccc2O1 (stereo not drawn) | 983 s |
| Cc1ccc(-c2nc3sc(N4CCCCC4)nn3c2NC(=O)c2ccnn2C)cc1 | 887 s |
| O=C(NCc1ccco1)c1nc2ccccn2c1-c1ccsc1 | 761 s |
| COC(=O)c1ccc(NC(=O)c2cc(C(C)(C)C)n3nccc3n2)cc1 | 865 s |
| COc1ccc(CCNC(=O)c2ccc3c(c2)N(C)C(=O)C2CCCCN32)cc1OC (stereo not drawn) | 774 s |
| Cc1ccc(-c2ncccc2CNS(=O)(=O)c2cccc(C)c2)cc1 | 726 s |
| CC(C)C(=O)NCC(c1ccccc1Cl)c1c[nH]c2ccccc12 (stereo not drawn) | 929 s |
| O=C(Cn1c(=O)ccc2cc(S(=O)(=O)N3CCCC3)ccc21)N1CCN(c2ccccn2)CC1 | 596 s |
| O=C1CCCCC(Cc2ccccc2)(C(=O)N2CCc3ccccc3C2)N1 (stereo not drawn) | 836 s |
| c1cnc(N2CCN(c3nc4ccccc4s3)CC2)nc1 | 809 s |
| CCc1ccc(NC(=O)N2CCC(C(=O)NCc3csc(C)n3)CC2)cc1 | 660 s |

| Compound | RP-LC retention time |
| --- | --- |
| Cn1nc(CNC(=O)C2(C)CCCCC2)c2c1CCN(S(C)(=O)=O)C2 | 702 s |
| O=C(NCc1ccc(F)cc1)c1cccc(-c2ccc(N3CCCC3)nc2)c1 | 680 s |
| O=C(c1ccoc1)N1CCCC(c2nc(-c3ccc(F)cc3)n[nH]2)C1 (stereo not drawn) | 710 s |
| CCC(C)(C)N=C(NC#N)Nc1cccnc1 | 689 s |
| Cc1cccc(C(=O)N2CCC3(CC2)NC(=O)c2ccc(F)cc2N3C)c1 | 763 s |
| COCCC(=O)N1CCC2(CCC2NC(=O)COC)CC1 (stereo not drawn) | 594 s |
| Cc1cc(C)cc(C(=O)N2CCCC(C(=O)NCc3cccs3)C2)c1 (stereo not drawn) | 832 s |
| CCc1ccc(NC(=O)C2CC(=O)N(CCc3c[nH]c4ccc(F)cc34)C2)cc1 (stereo not drawn) | 873 s |
| CCCN(C(=O)C1CCCN(c2ncnc3c2nc2n3CCCCC2)C1)c1ccc(F)cc1 (stereo not drawn) | 930 s |
| OC(CN1CCN(c2ncccn2)CC1)c1ccc(Cl)cc1 (stereo not drawn) | 614 s |
| CSc1ccc(NC(=O)C2CCN(c3cnc4nc(C)c(C)nc4c3)CC2)cc1 | 767 s |
| Cc1nc(-c2cn(C)c3ncccc23)sc1C(=O)Nc1ccc(Cl)cc1F | 975 s |
| COCCNC(=O)c1nnn(-c2ccc(F)cc2)c1-c1ccncc1 | 663 s |
| CCOCCCNC(=O)c1cc2c(n(-c3ccc(C(C)C)cc3)c1=O)CCCC2=O | 952 s |
| Cc1ccc(-c2cn3c(C(=O)Nc4nc(C)cs4)csc3n2)cc1 | 848 s |
| CCc1nc(-c2cc(S(=O)(=O)N3CCC(C(=O)N4CCCCCC4)CC3)c(C)s2)no1 | 1030 s |
| CC(=O)Nc1ccc(-n2cnc(C(=O)N3CCN(c4cccc(Cl)c4)CC3)c2)nc1 | 749 s |
| CCOc1ccccc1NC(=O)C1CCN(S(=O)(=O)c2ccc3c(c2)sc(=O)n3CC)CC1 | 922 s |
| CN(C)CCn1nnc2cc(-c3noc(-c4ccc(Br)cc4)n3)ccc21 | 727 s |
| CCOc1ccccc1CNC(=O)C1CCCN(c2nccnc2Sc2ccc(C)cc2)C1 (stereo not drawn) | 1190 s |
| CCC(C)(C)OCC(O)CNCC(C)C (stereo not drawn) | 579 s |
| O=C(CN1CCN(Cc2ccc(F)cc2)C1=O)NCc1cccc(F)c1 | 790 s |
| Cc1ccc(Cl)cc1NC(=O)C(C)n1cnc2nc3c(cc2c1=O)CCCC3 (stereo not drawn) | 809 s |

| Compound | RP-LC retention time |
| --- | --- |
| COCC1(O)CCOC2(CCN(Cc3ccc(F)cc3Cl)CC2)C1 (stereo not drawn) | 563 s |
| Cc1ccc(NC(=O)N2CCc3nc[nH]c3C2)cc1 | 575 s |
| O=C1NCCCn2cc(S(=O)(=O)N3CCN(c4cccc(Cl)c4)CC3)cc21 | 804 s |
| Cc1ccc(-c2noc(C3CC3)n2)cc1S(=O)(=O)N1CCC(C(=O)NC2CC2)CC1 | 836 s |
| COc1ccc(-c2noc(N3CCC(Cc4ccccc4)CC3)n2)cc1OC | 1240 s |
| CCOC(=O)c1c(C)n(C)c2c1cc(O)c1ccccc12 | 945 s |
| CCN(CC)C(=O)c1ccc(-c2nc3cc(NS(=O)(=O)c4ccccc4Cl)ccc3n2C)cc1 | 695 s |
| CCCn1cc(C(=O)NCc2ccc(C)cc2)c(S(=O)(=O)N2CCC(C)CC2)n1 | 1140 s |
| CCc1nc2ccc(CCC(=O)NCCCc3ccccc3)cc2[nH]1 | 614 s |
| O=C(Cn1ccc2sccc2c1=O)Nc1ccc(Cl)cc1F | 802 s |
| CC(NCC(O)COCCOc1ccc(F)cc1)c1ccccc1 (stereo not drawn) | 595 s |
| CCOc1ccc(-c2ccc(=O)n(Cc3nc(-c4ccccc4C)no3)n2)cc1 | 1040 s |
| COCCN1C(=O)[C@H]2CN(Cc3cccc4[nH]ccc34)C[C@H]2C1=O | 583 s |
| CCSc1cccc(C(=O)N2CC(=O)Nc3ccccc32)c1 | 756 s |
| CCc1noc(-c2nc(-c3ccc(OC)c(F)c3)no2)n1 | 926 s |
| Clc1cccc(Nc2c(-c3ccccc3)nc3cnccn23)c1 | 921 s |
| O=C(NCc1ccccc1C(F)(F)F)c1cnc(-c2ccccc2)nc1-c1ccncc1 | 924 s |
| CCc1noc(-c2nc(-c3ccc(F)c(F)c3)no2)n1 | 1090 s |
| Cc1cc(C(=O)N2CC3CN(S(=O)(=O)c4cccc(F)c4)CC(C2)O3)c(C)o1 | 828 s |
| CCOc1ccc(N2CC(c3nc(-c4ccncc4)no3)CC2=O)cc1 (stereo not drawn) | 736 s |
| Cc1noc(C)c1CCC(=O)N1CCC2(CC1)CC(CCOCC1CC1)CCO2 (stereo not drawn) | 831 s |
| CC1CCCCN1CCNC(=O)c1ccc2c(c1)nc1n2CCN(Cc2ccccc2)C1=O (stereo not drawn) | 601 s |
